According to patent US8183236B2, “Compounds with HIV-1 integrase inhibitory activity and use thereof as anti-HIV/AIDS therapeutics” (University of Southern California, priority 2007, dated 2012):

Legend:
[1] = target: T1, HIV-1 integrase (wild-type IN) (Human immunodeficiency virus type 1 group M subtype B, UniProt P12497); assay: HIV-1 integrase 3′-processing assay (32P-labeled 21-mer, gel); format: biochemical
From the text: (§1) The oligonucleotides 21 top, 5′-[…]-3′ (SEQ ID NO:1) and 21 bot, 5′-[…]-3′ (SEQ ID NO:2) were purchased from Norris Cancer Center Core Facility (University of Southern California) and purified by UV shadowing on polyacrylamide gel. To analyze the extent of 3′-processing and strand transfer using 5′-end labeled substrates, 21 top was 5′-end labeled using T4 polynucleotide kinase (Epicentre, Madison, Wis.) and γ [^32P]-ATP (Amersham Biosciences or ICN). The kinase was heat-inactivated and 21 bot was added in 1.5-molar excess. The mixture was heated at 95° C., allowed to cool slowly to room temperature, and run through a spin 25 mini-column (USA Scientific) to separate annealed double-stranded oligonucleotide from unincorporated material.
(§2) To determine the extent of 3′-processing and strand transfer, wild-type IN was preincubated at a final concentration of 200 nM with the inhibitor in reaction buffer (50 mM NaCl, 1 mM HEPES, pH 7.5, 50 μM EDTA, 50 μM dithiothreitol, 10% glycerol (w/v), 7.5 mM MnCl2, 0.1 mg/ml bovine serum albumin, 10 mM 2-mercaptoethanol, 10% dimethyl sulfoxide, and 25 mM MOPS, pH 7.2) at 30° C. for 30 min. Then, 20 nM of the 5′-end ^32P-labeled linear oligonucleotide substrate was added, and incubation was continued for an additional one hour. Reactions were quenched by the addition of an equal volume (16 μl) of loading dye (98% deionized formamide, 10 mM EDTA, 0.025% xylene cyanol and 0.025% bromophenol blue). An aliquot (5 μl) was electrophoresed on a denaturing 20% polyacrylamide gel (0.09 M tris-borate pH 8.3, 2 mM EDTA, 20% acrylamide, 8M urea).
(§3) Gels were dried, exposed in a PhosphorImager cassette, and analyzed using a Typhoon 8610 Variable Mode Imager (Amersham Biosciences) and quantitated using ImageQuant 5.2. Percent inhibition (% I) was calculated using the following equation: %I=100×[1−(D−C)/(N−C)]
(§4) where C, N, and D are the fractions of 21-mer substrate converted to 19-mer (3′-processing product) or strand transfer products for DNA alone, DNA plus IN, and IN plus drug, respectively. The IC50 values were determined by plotting the logarithm of drug concentration versus percent inhibition to obtain concentration that produced 50% inhibition. […]

[2] = target: T1, HIV-1 integrase (wild-type IN); assay: HIV-1 integrase strand transfer assay (32P-labeled 21-mer, gel); format: biochemical
From the text: as §1, §2, §3, §4

[3] = unit inferred, read-out: IN inhibition activity 3′-processing
[4] = unit inferred, read-out: IN inhibition activity Strand transfer
[5] = wild-type IN 200 nM, 7.5 mM MnCl2, read-out: Inhibition of IN Catalytic Activities IC50 (μM) 3′-processing
[6] = wild-type IN 200 nM, 7.5 mM MnCl2, read-out: Inhibition of IN Catalytic Activities IC50 (μM) Strand Transfer
[7] = unit inferred, read-out: HIV-1 IN Inhibitory Activities 3′-processing
[8] = unit inferred, read-out: HIV-1 IN Inhibitory Activities Strand transfer

SMILES | IC50 [1, 3] [µM] | IC50 [2, 4] [µM] | IC50 [1, 5] [µM] | IC50 [2, 6] [µM] | other results
Cc1ccc(C(=O)O)cc1NC(=O)CSc1nc2ccccc2s1 [GLD59] |  |  |  |  | IC50 ([1]; Table 53, structurally diverse compounds, read-out: IN inhibition activity 3′-processing): 63 ± 22 µM; IC50 ([2]; Table 53, structurally diverse compounds, read-out: IN inhibition activity Strand transfer): 17 ± 2 µM
COc1ccc(-c2nnc(SCC(=O)N/N=C/c3ccccc3C(=O)O)n2-c2ccccc2)cc1OC [GLD38] | > 100 | > 100 |  |  | 
O=C1/C(=C/c2ccc(O)cc2O)SC(=S)N1c1ccccc1 [Compound X221] |  |  | > 100 | > 100 | 
O=C(CSc1nnc(-c2ccc(Cl)cc2)n1-c1ccccc1)N/N=C/c1cccc(Oc2ccccc2)c1 [LX7] | > 100 | > 100 |  |  | 
CCn1c(=O)c(C(=O)Nc2ccccc2O)c(O)c2ccccc21 [XR10] |  |  | 72 | 32 | 
COc1ccc(/C=C2/SC(=S)N(CC(=O)O)C2=O)cc1OCc1ccccc1 [OT5] |  |  | > 100 | 54 ± 17 | 
O=C(O)c1cccc(-c2ccc(/C=N/Nc3nnn[nH]3)o2)c1 [AV15A1] | > 100 | 96 ± 6 |  |  | 
O=C(CSc1nnc(Cc2ccccc2)n1-c1cccc(Cl)c1)NNC(=O)c1ccccc1O [AS230] | 9 ± 1 | 8 ± 4 |  |  | 
CCOc1ccc(N(CC(=O)Nc2ccccc2C(=O)O)S(=O)(=O)c2ccc(Cl)cc2)cc1 [OT27] |  |  | 69 ± 15 | 47 ± 22 | 
Nc1nonc1C(=O)N/N=C/c1ccc(-c2cccc(C(=O)O)c2)o1 [AV15A5] | > 100 | 88 ± 21 |  |  | 
COc1cc(/C=N/Nc2nc3nonc3nc2Nc2ccccc2F)ccc1O [AV15A18] | 30 ± 12 | 17 ± 5 |  |  | 
Cc1ccc2[nH]c(/C(C#N)=C\c3ccc(-c4ccc(C(=O)O)c(O)c4)o3)nc2c1 [Compound X132] |  |  | 16 ± 5 | 8 ± 1 | 
O=C(CSc1nnc(-c2ccccc2O)n1Cc1ccccc1)NNC(=O)c1ccccc1O [AS9A11] | 15 ± 3 | 9 ± 2 |  |  | 
O=C(O)c1cccc(-c2ccc(/C=N/NC(=O)c3ccc(C(=O)N/N=C/c4ccc(-c5cccc(C(=O)O)c5)o4)cc3)o2)c1 [AV15A20] | > 100 | 95 |  |  | 
COc1cc(/C=C2/SC(=S)N(CCC(=O)O)C2=O)ccc1OC(=O)c1ccccc1 [OT17] |  |  | 42 ± 20 | 27 ± 11 | 
CC1=C(C#N)c2nc(N)c(C#N)c(C)c2/C1=C/c1ccc(-c2ccc(F)cc2)o1 [AV15A48] | > 100 | > 100 |  |  | 
COC(=O)c1ccc(C(=O)OC)c(NC(=O)c2ccc(C)c([N+](=O)[O-])c2)c1 [Compound X19] |  |  | 92 |  | 
O=C(CCCN1C(=O)C(=Cc2cccs2)SC1=S)Nc1ccc(O)c(C(=O)O)c1 [Compound X169] |  |  | 44 ± 20 | 35 ± 16 | 
O=C(O)c1cccc(-c2ccc(/C=N/Nc3nc(Nc4ccccc4)nc(Nc4ccccc4)n3)o2)c1 [AV15A42] | 89 ± 19 |  |  |  | 
CC1=C(C#N)c2nc(N)c(C#N)c(C)c2/C1=C/c1ccc(-c2ccc(C(=O)O)c(Cl)c2)o1 [AV15A44] | > 100 | 68 ± 22 |  |  | 

SMILES | IC50 [1, 3] [µM] | IC50 [2, 4] [µM] | IC50 [1, 5] [µM] | IC50 [2, 6] [µM] | other results
O=C(CSc1nnc(-c2ccccc2)n1Cc1ccccc1)NNC(=O)c1ccccc1O [AS90] | 21 ± 6 | 9 ± 7 |  |  | 
COCCN1C(=O)/C(=C\c2ccc(OCc3ccc(C(=O)O)cc3)c(OC)c2)SC1=S [OT35] |  |  | 41 ± 11 | 38 ± 16 | 
Cc1ccc(C(=O)C2=C(O)C(=O)N(c3nccs3)C2c2ccc(F)cc2)cc1 (stereo not shown) [Compound M28A7] | > 100 | 78 ± 10 |  |  | 
COc1ccc(C=C2SC(=S)N(CCC(=O)Nc3ccc(C(=O)O)c(O)c3)C2=O)cc1OC [Compound X192] |  |  | 61 ± 34 | 17 ± 4 | 
O=C(O)c1cccc(-c2ccc(/C=C3\Sc4ccccc4C3=O)o2)c1 [AV15A6] | 76 | 24 |  |  | 
Cc1ccc(S(=O)(=O)N(CC(=O)Nc2ccccc2C(=O)O)c2cccc(Cl)c2)cc1 [OT24] |  |  | 98 ± 5 | 71 ± 23 | 
CCn1cc(C(=O)NN)c(=O)c2cc(F)c(N3CCCCCC3)cc21 [ROM3A2] |  |  | 94 | 98 | 
CCn1cc(C(=O)O)c(=O)c2cc(F)c(N3CCN(S(=O)(=O)c4ccc(NC(C)=O)cc4)CC3)cc21 [SR9] |  |  | > 100 | > 100 | 
CCn1c(=O)c(C(=O)Nc2ccccc2C(=O)OC)c(O)c2ccccc21 [XR15] |  |  |  | 9.5 | 
COc1ccc(/C=C2/SC(=S)N(CC(=O)O)C2=O)cc1OCc1ccccc1F [OT37] |  |  | > 100 | 79 ± 8 | 
Oc1ccccc1/C=N/CC(O)C/N=C/c1ccccc1O [Example X208] |  |  |  |  | IC50 [1, 7]: 97 µM; IC50 [2, 8]: 61 µM
Cc1ccc(C(=O)C2=C(O)C(=O)N(CCCn3ccnc3)C2c2ccc(Cl)cc2)cc1 (stereo not shown) [Compound X155] | 93 ± 12 | 67 ± 28 |  |  | IC50 [1, 7]: 93 µM; IC50 [2, 8]: 67 µM
O=C(O)c1cccc(-c2ccc(/C=N/N(c3ccccc3)c3ccccc3)o2)c1 [AV15A27] | 42 ± 24 | 26 ± 12 |  |  | 
CCn1c(=O)c(C(=O)Nc2cc(Cl)ccc2OC)c(O)c2ccccc21 [XR5] |  |  | 74 | 19 | 
CCOc1cc(/C=C2\SC(=S)N(NC(=O)c3ccccc3O)C2=O)ccc1O [Compound X223] |  |  | 70 ± 27 | 38 ± 14 | 
O=C(CN1C(=O)/C(=C2\SC(=S)N(CC(=O)Nc3ccc(O)cc3)C2=O)SC1=S)Nc1ccc(O)cc1 [Compound X103] |  |  | 59 ± 37 | 69 | 
Cc1cc(C)nc(SCc2nnc(SCC(=O)NNC(=O)c3ccccc3O)n2-c2ccccc2)n1 [AS9A3] | 51 ± 5 | 27 ± 8 |  |  | 
C=CCn1c(=O)c(C(=O)Nc2ccccc2S(N)(=O)=O)c(O)c2ccccc21 [XR7] |  |  | 83 | 45 | 
O=C(C1=C(O)C(=O)N(c2nc3ccccc3s2)C1c1ccc2c(c1)OCO2)c1ccccc1 (stereo not shown) [Compound M28A8] | 57 ± 10 | 21 ± 10 |  |  | 
Cc1cccc(Nc2nc3nonc3nc2N/N=C/c2ccc(-c3ccccc3Cl)o2)c1C [AV15A33] | > 100 |  |  |  | 

SMILES | IC50 [1, 3] [µM] | IC50 [2, 4] [µM] | IC50 [1, 5] [µM] | IC50 [2, 6] [µM] | other results
O=C(N/N=C/c1ccc(/C=N/NC(=O)c2cc(O)cc(O)c2)cc1)c1cc(O)cc(O)c1 [Example X218] |  |  |  |  | IC50 [1, 7]: 76 µM; IC50 [2, 8]: 56 µM
O=C(CN1C(=O)C(=Cc2ccccc2Cl)SC1=S)Nc1ccc([N+](=O)[O-])cc1O [Compound X193] |  |  | > 100 | > 100 | 
O=C(O)c1cccc(-c2ccc(/C=N/Nc3nc(N4CCOCC4)nc(N4CCOCC4)n3)o2)c1 [AV15A16] | > 100 | > 100 |  |  | 
Oc1cccc2ccc(/C=C/c3ccc(-c4cccc(Cl)c4)o3)nc12 [RT29] |  |  | 30 | 70 | 
O=C(O)c1ccc(-c2ccc(/C=N/Nc3nc(Nc4ccccc4)nc(Nc4ccccc4)n3)o2)cc1O [AV15A28] | > 100 | > 100 |  |  | 
O=C(CSc1nnnn1-c1ccccc1)NNC(=O)c1ccc(O)cc1O [AS9A8] | 68 ± 3 | 61 ± 6 |  |  | 
O=C(Nc1nncs1)c1c(O)c2ccccc2n(Cc2ccccc2)c1=O [LM33] |  |  |  | 36 | 
N#C/C(=C\c1ccc(-c2cc(Cl)ccc2C(=O)O)o1)c1nc2ccccc2[nH]1 [AV15A52] |  | 51 |  |  | 
O=C(NN1C(=O)/C(=C/c2ccc(Br)cc2)SC1=S)c1ccccc1O [Compound X220] |  |  |  | 27 ± 6 | 
C=CCn1c(=O)c(C(=O)Nc2ccccc2OC)c(O)c2ccccc21 [XR3] |  |  |  | 25 | 
COC(=O)C1=C(C(=O)OC)SC(=C2C(=S)C(C)(C)N(C(=O)c3cccnc3)c3ccc(C)cc32)S1 [RT25] |  |  | > 100 |  | 
Cc1ccc(C=C2SC(=S)N(CCC(=O)Nc3cccc(C(=O)O)c3)C2=O)cc1 [Compound X100] |  |  |  | > 100 | 
COc1ccccc1C=C1SC(=S)N(CCC(=O)Nc2ccc(O)cc2)C1=O [Compound X118] |  |  | 99 ± 3 |  | 
O=C(N/N=C/c1ccc(-c2ccc(Cl)cc2)o1)c1ccccc1 [AV15A29] | > 100 |  |  |  | 
Nc1nonc1-c1nc2ccccc2n1CC(=O)N/N=C/c1ccc(-c2cccc(C(=O)O)c2)o1 [NST20] |  |  |  | 68 | 
CCOC(=O)CCc1cc(C(=O)OCC)c(CCC(=O)OCC)cc1C(=O)OCC [Compound X35] |  |  |  | 94 | 
O=C1C(=Cc2c(NCCO)nc3ccccn3c2=O)SC(=S)N1Cc1ccco1 [Compound X281] |  |  | > 100 |  | 
O=C(CCCN1C(=O)/C(=C/c2cccs2)SC1=S)Nc1nc2ccccc2s1 [Compound X178] |  |  | 98 ± 5 |  | 
Cc1nc(=O)c(-c2ccccc2)c(C)n1-c1ccc(C(=O)O)c(O)c1 [Compound X181] |  |  |  | 73 ± 24 | 
